The subject of data set [1] is P. falciparum male gametocytes. The experiment in a line: PhIDDLI screening assay, 24 h preincubation at 10xIC50, tubulin/DAPI imaging of male gametogenesis. It counts as cell-based, Plasmodium falciparum NF54. Conditions: approximately 10xIC50, fixed 20 min post-induction. How it is done: Mature gametocytes were treated for 24h with approximately 10xIC50 of test compounds or DMSO as a solvent control. Male gametogenesis was then induced by lowering the temperature from 37°C to ~20°C and adding xanthurenic acid. 20min later, when male gametogenesis (exflagellation) could be expected to peak, all samples were fixed. A sample of non-induced DMSO-treated gametocytes was fixed with 4% paraformaldehyde to provide an unactivated gametocyte control for comparison. The cells were then processed for immunofluorescence using an antibody against alpha-tubulin II and DNA staining with 4′,6-diamidino-2-phenylindole (DAPI) and visualised by fluorescence microscopy. Tubulin-bright cells from each treated sample were imaged and captured at random.
Cells were identified using a semi-automated pipeline established in the ICY BioImageAnalysis (https://icy.bioimageanalysis.org/) protocols module. Images and accompanying bounding boxes representing the outlines of identified cells were then passed to the PhIDDLI pipeline. PhIDDLI consists of several open source image processing and AI/ML modules connected for seamless processing, clustering and visualisation of cellular phenotypes (Fig 3A). […] To focus on the overall cellular phenotype rather than potentially confounding variable immunostaining intensities between experimental replicates, cells were transformed so that the range of staining intensities for each channel were normalised to fall between a 0–255 pixel intensity value. Then, using the Albumentations module (https://albumentations.ai/) to augment the dataset and control for cells in different orientations, each extracted cell image was rotated 90, 180 and 270 degrees and mirrored so that each cell was represented eight different times in the dataset. The augmented images were then passed to the EffcientNet-B1 module (https://github.com/tensorflow/tpu/tree/master/models/official/efficientnet) (a pretrained neural network developed for image processing) which extracted 1,000 distinct numerical features from each individual cell image. The EfficientNet-B1 was selected from amongst the other EfficientNet models due to its input image size (240 pixels) best matching the size of the individual cell images in the dataset, therefore ensuring maximal input data whilst allowing acceptable computation time on a desktop computer. […]
Mature gametocyte cultures were divided into 100 μl “microcultures” in pre-warmed 1.5 ml tubes also containing 100 μl complete culture medium with test compounds at a final concentration of 10xIC50 or 0.5% DMSO as a solvent control. Tubes were gassed and incubated at 37°C for 24 h. The entire compound library was screened once, spread over four different experiments, each with two DMSO control tubes. An 8% formaldehyde solution was prepared by diluting 16% methanol-free formaldehyde in an equal volume of phosphate-buffered saline (PBS). In each experiment, one DMSO control tube was fixed with equal volume of 8% formaldehyde (4% final concentration) at 37°C to provide an “unactivated” gametocyte control. Gametogenesis was then triggered in the remaining DMSO control tube and all compound tubes by adding 10 μl ookinete medium, and they were immediately incubated at room temperature. After 20 min (when exflagellation is maximal), all remaining tubes were fixed for 30 min.
100 μl of the fixed cell suspensions were added to wells of a 24 well plate containing 1ml PBS and a poly-l-lysine-coated glass coverslip.

The subject of data set [2] is P. berghei ookinete development. The data set can be described thus: P. berghei Ookinete Development Assay (PbODA). It counts as cell-based, Plasmodium berghei. To be noted: Mean TOX HepG2 over Pb ODA value; GREEN = >10-fold; RED = <10-fold.
Data set [3] has as its system P. falciparum protein kinase G (PfPKG). To be noted: cited from earlier work.

The structures appear in SMILES notation.

For the molecule `CC(C)(CNC(=O)[C@H]1CCCCN1)c1nc(-c2ccc(Cl)c(O)c2)c(-c2ccncc2)[nH]1.Cl` [TC04], in data set [1], the “Cellular phenotype of male gametocytes” value is “unactivated phenotype consistent with total arrest of gametogenesis”.

In the case of `CC(C)(CN)c1nc(-c2ccc(Br)c(O)c2)c(-c2ccncc2)[nH]1.Cl` [TC13], the “Cellular phenotype of male gametocytes” value in data set [1] is reported as “unactivated phenotype consistent with total arrest of gametogenesis”. Moreover, the “Cytotox ratio Pb Ookinete” value in data set [2] was 38479.3. The “activity against recombinant PfPKG” value in data set [3] is “had activity”.

With `Cl.NCC1(c2nc(-c3ccc(Cl)c(O)c3)c(-c3ccncc3)[nH]2)CCCCC1` [TC41], in data set [1], the “Cellular phenotype of male gametocytes” value is recorded as “unactivated phenotype consistent with total arrest of gametogenesis”. Further, in data set [2], the “Cytotox ratio Pb Ookinete” value is reported as 14844.9.

Values taken from paper PMC10584170, “Machine learning-based phenotypic imaging to characterise the targetable biology of Plasmodium falciparum male gametocytes for the development of transmission-blocking antimalarials” (PLOS Pathogens, 2023).
